Patent US12180200B1, “2-(benzo[d]oxazol-2-yl)-n′-(isonicotinoyloxy)acetimidamide as an antimicrobial compound” (KING FAISAL UNIVERSITY, priority 2023, dated 2024)

Tests used:
Assay type in all cases: cell-based
different microbes = experiment: Antimicrobial activity screening (overall statement); details: against different microbes (bacteria and fungi of Tables 1 and 2)
Procedure: (§1) The agar plate disc-diffusion method was applied. Sterilized filter papers (6 mm in diameter) were wetted with 10 μL of a solution 2-(benzo[d]oxazol-2-yl)-N′-(isonicotinoyloxy)acetimidamide (3) to be tested, containing 10 mg/mL in DMSO, and the discs were allowed to air dry. The discs were then placed onto the surface of agar plates (nutrient agar for bacteria and Sabouraud's dextrose agar for fungi) seeded with the test organism. Each plate contained 15 mL of the agar medium, previously seeded with 0.2 mL of the broth culture of each organism pregrown for 18 hours. The plates were incubated at 37° C. for 48 hours, and 72 hours for fungi. The inhibition zones was measured in mm. Discs impregnated with DMSO were used as a control, and its inhibition zone was subtracted from the tested compound actual inhibition zone.

[1] = tested on: Chrysosporium keratinophilum; experiment: Agar plate disc-diffusion, antifungal activity
Procedure: as §1, with “Sterilized filter papers (6 mm in diameter) were wetted with 10 μL of a solution 2-(benzo[d]oxazol-2-yl)-N′-(isonicotinoyloxy)acetimidamide (3) to be tested, containing 10 mg/mL in DMSO, and the discs were allowed to air dry.” left out

Aspergillus flavus = experiment: Agar plate disc-diffusion, antifungal activity
Procedure: as §1, with “Sterilized filter papers (6 mm in diameter) were wetted with 10 μL of a solution 2-(benzo[d]oxazol-2-yl)-N′-(isonicotinoyloxy)acetimidamide (3) to be tested, containing 10 mg/mL in DMSO, and the discs were allowed to air dry.” left out

Pseudomonas aeruginosa = experiment: Agar plate disc-diffusion, antibacterial activity
Procedure: as §1, with “Sterilized filter papers (6 mm in diameter) were wetted with 10 μL of a solution 2-(benzo[d]oxazol-2-yl)-N′-(isonicotinoyloxy)acetimidamide (3) to be tested, containing 10 mg/mL in DMSO, and the discs were allowed to air dry.” left out

Staphylococcus aureus = experiment: Agar plate disc-diffusion, antibacterial activity
Procedure: as §1, with “Sterilized filter papers (6 mm in diameter) were wetted with 10 μL of a solution 2-(benzo[d]oxazol-2-yl)-N′-(isonicotinoyloxy)acetimidamide (3) to be tested, containing 10 mg/mL in DMSO, and the discs were allowed to air dry.” left out

Escherichia coli = experiment: Agar plate disc-diffusion, antibacterial activity
Procedure: as §1, with “Sterilized filter papers (6 mm in diameter) were wetted with 10 μL of a solution 2-(benzo[d]oxazol-2-yl)-N′-(isonicotinoyloxy)acetimidamide (3) to be tested, containing 10 mg/mL in DMSO, and the discs were allowed to air dry.” left out

Bacillus cereus = experiment: Agar plate disc-diffusion, antibacterial activity
Procedure: as §1, with “Sterilized filter papers (6 mm in diameter) were wetted with 10 μL of a solution 2-(benzo[d]oxazol-2-yl)-N′-(isonicotinoyloxy)acetimidamide (3) to be tested, containing 10 mg/mL in DMSO, and the discs were allowed to air dry.” left out

[2] = A = concentration of comp. = 10,000 μL
[3] = B = concentration of comp. = 30,000 μL
[4] = C = concentration of comp. = 50,000 μL

SMILES | antimicrobial activities (different microbes) | inhibition zone [1, 2] | inhibition zone [1, 3] | inhibition zone [1, 4] | inhibition zone (Aspergillus flavus; [2]) | inhibition zone (Aspergillus flavus; [3]) | inhibition zone (Aspergillus flavus; [4]) | inhibition zone (Pseudomonas aeruginosa; [2]) | inhibition zone (Pseudomonas aeruginosa; [3]) | inhibition zone (Pseudomonas aeruginosa; [4]) | inhibition zone (Staphylococcus aureus; [2]) | inhibition zone (Staphylococcus aureus; B =) | inhibition zone (Staphylococcus aureus; [4]) | inhibition zone (Escherichia coli; [2]) | inhibition zone (Escherichia coli; [3]) | inhibition zone (Escherichia coli; [4]) | inhibition zone (Bacillus cereus; [2]) | inhibition zone (Bacillus cereus; [3]) | inhibition zone (Bacillus cereus; [4])
N/C(Cc1nc2ccccc2o1)=N\OC(=O)c1ccncc1 [Compound 3, 2-(benzo[d]oxazol-2-yl)-N′-(isonicotinoyloxy)acetimidamide] | excellent antimicrobial activities | 26 mm | 29 mm | 48 mm | 20 mm | 24 mm | 35 mm | 25 mm | 29 mm | 50 mm | 17 mm | 24 mm | 30 mm | 27 mm | 36 mm | 52 mm | 25 mm | 27 mm | 36 mm
O=C(O)c1cn(C2CC2)c2cc(N3CCNCC3)c(F)cc2c1=O [Cip., ciprofloxacin, reference compound] | – | 29 mm | 30 mm | 53 mm | 29 mm | 30 mm | 42 mm | 29 mm | 30 mm | 53 mm | 43 mm | 44 mm | 53 mm | 30 mm | 39 mm | 60 mm | 29 mm | 30 mm | 42 mm
